From US20140107051A1, “ISOFLAVONES FOR TREATING MUCOPOLYSACCHARIDOSES” (INSTYTUT FARMACEUTYCZNY, priority 2005, published 2014)
pIC50: −log10 of the molar value.

Key:
[1] = tested on: cultured human skin fibroblasts derived from patients affected with mucopolysaccharidose; test: 35S-sulphate incorporation test of glycosaminoglycans synthesis, different human cell lines / MPS types; assay type: cell-based; details: 30 μM; both cell lines of Table 2
Method: (§1) The activity of isoflavones was evaluated by the measure of glycosaminoglycans synthesis in 35S-sulphate incorporation test comprising incubation of the radiolabelled 35S-sulfate into GAGs in cultured human skin fibroblasts derived from normal individuals (control) and patients affected with mucopolysaccharidose (Murata et al., Arch Biochem Biophys 2003; 413: 229-235).
(§2) The negative control was DMSO (diluent for genistein and all derivatives), the positive control—genistein. […] Experiment with each cell line has been repeated twice, and every measurement has been done twice.

[2] = tested on: cultured human skin fibroblasts derived from normal individuals; test: 35S-sulphate incorporation test of glycosaminoglycans synthesis, normal cells; assay type: cell-based; details: 30 μM; for activity at 30 µM: Homo sapiens, Skin fibroblast, DMSO control = 1, read-out: Relative GAG synthesis (converted to 1 cell), Normal cells
Method: as §1, §2

[3] = tested on: fibroblasts of patients affected with MPS I; test: 35S-sulphate incorporation test of glycosaminoglycans synthesis, MPS I cells; assay type: cell-based, human; details: Homo sapiens, Fibroblast, 30 μM; DMSO control = 1; read-out: Relative GAG synthesis (converted to 1 cell), MPS I
Method: as §1, §2

[4] = Proliferation 144 h (Table 4); assay type: cell-based; details: read-out: Proliferation 144 h IC50
MPS IIIA fibroblasts = test: Number of lysosomal structures by electron microscopy, MPS IIIA; assay type: cell-based, human; details: 30 μM
MPS IIIB fibroblasts = test: Number of lysosomal structures by electron microscopy, MPS IIIB; assay type: cell-based, human; details: 30 μM

SMILES	CC50 at 24 h (in vitro) [µM]	influence on GAG synthesis compared with genistein (in words) [1]	Inhibition in relation to genistein, first symbol (normal cells) [2]	activity at 30 µM [2] [%]	activity at 30 µM [3] [%]	CC50 at 48 h (in vitro) [µM]	pIC50 [4]	further results
C=CCOc1cc(O)c2c(=O)c(-c3ccc(O)cc3)coc2c1 [IFG-027]	13.1	an activity comparable with genistein	0/0	22	57			
CC(C)Oc1ccc(-c2coc3cc(OCc4ccccc4)cc(OC(C)C)c3c2=O)cc1 [IFG-065]	22.7			152	97			
COC(=O)COc1cc(O)c2c(=O)c(-c3ccc(O)cc3)coc2c1 [IFG-070, [5-hydroxy-3-(4-hydroxyphenyl)-4-oxo-4H-chromen-7-yloxy]-acetic acid methyl ester]	> 30					> 30	4.32	
CC(C)Oc1ccc(-c2coc3cc(OCc4ccccc4)cc(O)c3c2=O)cc1 [IFG-064]	6.6	an activity comparable with genistein, but only for one cell line		68	60			
COc1ccc(COc2cc(O)c3c(=O)c(-c4ccc(O)cc4)coc3c2)cc1 [IFG-062]	12.1			316	561			
O=C(O)COc1cc(O)c2c(=O)c(-c3ccc(O)cc3)coc2c1 [IFG-054]	> 30		0/0	30	53	> 30	< 4.52	
CC(=O)Oc1ccc(-c2coc3cc(OCc4ccccc4)cc(O)c3c2=O)cc1 [IFG-067]	15.1			67	61			
O=c1c(-c2ccc(O)cc2)coc2cc(OCCO)cc(O)c12 [IFG-073, 5-hydroxy-7-(2-hydroxyethoxy)-3-(4-hydroxyphenyl)-chromen-4-one]	27.5					21.7	4.79	
C=CCOc1ccc(-c2coc3cc(OCc4ccccc4)cc(O)c3c2=O)cc1 [IFG-051]	14.6	an activity comparable with genistein, but only for one cell line	0	32	96			
CC(=O)OCCCCCOc1cc(O)c2c(=O)c(-c3ccc(O)cc3)coc2c1 [IFG-071, acetic acid 5-[5-hydroxy-3-(4-hydroxyphenyl)-4-oxo-4H-chromen-7-yloxy]-pentyl ester]	> 30					57.6	4.75	Number of structures per 100 μm^2 of cellular cross section ± SD, amorphous (MPS IIIA fibroblasts): 0.25 ± 0.11 per 100 μm^2; Number of structures per 100 μm^2 of cellular cross section ± SD, complexed (MPS IIIA fibroblasts): 0.26 ± 0.09 per 100 μm^2; Number of structures per 100 μm^2 of cellular cross section ± SD, lamellar (MPS IIIA fibroblasts): 0.28 ± 0.13 per 100 μm^2; Number of structures per 100 μm^2 of cellular cross section ± SD, total number (MPS IIIA fibroblasts): 0.79 ± 0.22 per 100 μm^2; Number of structures per 100 μm^2 of cellular cross section ± SD, amorphous (MPS IIIB fibroblasts): 0.13 ± 0.09 per 100 μm^2; Number of structures per 100 μm^2 of cellular cross section ± SD, complexed (MPS IIIB fibroblasts): 0.07 ± 0.06 per 100 μm^2; Number of structures per 100 μm^2 of cellular cross section ± SD, lamellar (MPS IIIB fibroblasts): 0.07 ± 0.07 per 100 μm^2; Number of structures per 100 μm^2 of cellular cross section ± SD, total number (MPS IIIB fibroblasts): 0.26 ± 0.13 per 100 μm^2
O=c1c(-c2ccc(O)cc2)coc2cc(OCC3CO3)cc(O)c12 (stereo not shown) [IFG-050]	11.6	stronger influence on GAG synthesis than genistein	+	10	73			
O=C(O)CCCC(=O)Oc1ccc(-c2coc3cc(OCc4ccccc4)cc(O)c3c2=O)cc1 [IFG-060]	14.9		−	43	31			
CC(=O)OCC1OC(Oc2cc(O)c3c(=O)c(-c4ccc(O)cc4)coc3c2)C=CC1OC1OC(COC(C)=O)C(OC(C)=O)C(OC(C)=O)C1OC(C)=O (stereo not shown) [IFG-021]	11			57	92			
